pIC50: −log10 of the molar value.
Tested on: HeLa
Test: Antitumor activity against Homo sapiens (human) HeLa cells assessed as inhibition of cell proliferation after 48 hr by SRB assay
Format: functional, cell-based

Compound	pIC50
COc1ccc(-c2nc(Nc3ccc(S(N)(=O)=O)cc3)n3c(=O)[nH]nc3c2C#N)cc1OC	7.33
COc1ccc(-c2nc(Nc3ccc(S(N)(=O)=O)cc3)nc(N3N=C(C)CC3=O)c2C#N)cc1OC	7.34
COc1ccc(-c2nc(Nc3ccc(S(N)(=O)=O)cc3)n3c(C)nnc3c2C#N)cc1OC	7.32
COc1ccc(C2=C(C#N)C3=NCC(=O)N3C(Nc3ccc(S(N)(=O)=O)cc3)=N2)cc1OC	7.38

More lines, now with the values ahead:

pIC50	Compound
7.38	CCOC1=NN(c2nc(Nc3ccc(S(N)(=O)=O)cc3)nc(-c3ccc(OC)c(OC)c3)c2C#N)C(=O)C1
7.39	COc1ccc(-c2nc(Nc3ccc(S(N)(=O)=O)cc3)nc(-n3nc(C)cc3C)c2C#N)cc1OC
7.41	COc1ccc(-c2nc(Nc3ccc(S(N)(=O)=O)cc3)n3nnnc3c2C#N)cc1OC
7.80	COc1cccc2c1C(=O)c1c(O)c3c(c(O)c1C2=O)C[C@@](O)(C(=O)CO)C[C@@H]3O[C@H]1C[C@H](N)[C@H](O)[C@H](C)O1 [DOXORUBICIN]

Reference: ChEMBL document CHEMBL3045263, “Novel 2-thiopyrimidine derivatives as CDK2 inhibitors: molecular modeling, synthesis, and anti-tumor activity evaluation” (Med Chem Res, 2013)
